The results in this text go back to patent publication US10675293B2, “Nucleoside agents for the reduction of the deleterious activity of extended nucleotide repeat containing genes” (The Board of Trustees of the Leland Stanford Junior …, priority 2015, dated 2020).

The test system of one assay is 21-VS cells (HA-Venus). The experiment in a line: Control fluorescence of 21-VS stable cells expressing intact Venus. The class given is cell-based. Particulars: higher concentration, where BiFC reduction has reached its plateau. On the procedure:
The HA-Supt4h-YC and FLAG-NGN-YN fragments were amplified by PCR using plasmid constructs described above and sub-cloned individually into the pTRE-tight-BI vector (Clontech Laboratories), which contain a bi-directional CMV promoter under the control of tetracycline. The coding sequence of yellow fluorescence protein Venus with a HA-epitope in its N-terminus was PCR-amplified and cloned into the vector to generate pTRE-HA-Venus.
Tet-on HeLa cells were transfected with linearized pTRE-HA-Supt4h-VC-Flag-NGN-VN plasmid construct using LipofectAMINE 2000 (Invitrogen). After transfection, cells were cultured initially in growth medium containing puromycin (1 μg/ml) and then selected for clones that show YFP fluorescence in the presence of tetracycline (4 μg/ml). The stable line having the strongest fluorescence signal was isolated and designated as 2-PN4. […]
Stable lines 2-PN4 and 21-VS were pre-cultured in 6-well plates, followed by an incubation of Doxycycline (4 μg/ml) together with various concentrations of chemical compounds for 24 hr. Cells were washed with PBS (Sigma) and monitored by microscope (20× magnification). Photos were taken using Nikon D500 camera with a setting of ISO 1600, shutter 1/200 for the light images, and shutter ½ for the fluorescence images. […] The average of overall fluorescence signal was determined and compared to the one observed in DMSO-treated control sample. […]

In assay [1] the test system is Supt4h-YC and NGN-YN protein expression. In words: Western blot of Supt4h-YC and NGN-YN protein levels in 2-PN4 cells. The class given is cell-based, human. Here is the method: As described (Liu et al., “Spt4 is selectively required for transcription of extended trinucleotide repeats,” Cell (2012) 148:690-701), equal amounts of protein were resolved by electrophoresis on 12% sodium dodecyl sulfate (SDS)-polyacrylamide gels, and transferred onto nitrocellulose membranes (nitrocellulose, Waterman 0.45 μM, NBA085C). After blocking with 5% low-fat milk in Tris-buffer saline containing 0.1% Tween-20, membranes were probed with primary antibodies, incubated with a horseradish peroxidase (HRP)-conjugated secondary antibody, and detected by ECL reagent (enhanced chemiluminescence, PerkinElmer).

In another assay the test system is Q44-GFP. The experiment in a line: PolyQ-tagged GFP reporter in HEK293 cells, Q44-GFP. Particulars: 48 hours after transfection. Type of assay: cell-based. An excerpt:
(§1) CAG repeats and part of the flanking region in the first exon of Htt gene were PCR amplified from cDNA of HD patient lymphoblastoid cells containing one normal and one mutant allele (Q22 and Q44) with additional flanking restriction enzyme sites NheI. The PCR fragments were than in-frame fused with pEGFP-C1 at the end of the EGFP gene to express polyQ tagged GFP.
(§2) Normal length of poly Q (Q20) and pathogenic length of poly Q(Q44) were in-frame fused at the amino-terminus of eGFPC1 protein to generate Q44- and Q20-GFP (FIG. 8A). The plasmid carrying the polyQ tagged GFP was transfected into HEK 293 cells with greater than 90% transfection efficiency.
(§3) HEK293 cells were transiently transfected with the above mentioned GFP constructs. Five hours after transfection, cells were split among the wells of a 24-well plate and various concentrations of HD101 were added into the wells. 48 hours after transfection, cells were washed with PBS, fixed with 4% paraformaldehyde, and then nuclear stained with DAPI. The cell images were taken by fluorescent microscope (FIG. 9A) and the GFP and DAPI intensity of each field were quantitated using software Image Pro 6.2.

For another assay, the system named is Q20-GFP. In words: PolyQ-tagged GFP reporter in HEK293 cells, Q20-GFP. Particulars: higher concentration, 48 hours after transfection. Type of assay: cell-based.
From the text: as §1, §2, §3

The test system of a further assay is eGFPC1. In words: GFP reporter in HEK293 cells, eGFPC1 without polyQ. Type of assay: cell-based. The following applies: higher concentration, 48 hours after transfection. On the procedure: as §3

For `O=c1cnn([C@@H]2O[C@H](CO)[C@@H](O)[C@H]2O)c(=O)[nH]1` [HD101, 6-Azauridine], in the assay on 21-VS cells (HA-Venus), the “fluorescence of 21-VS cells” value is “markedly affected”. For the same molecule, the “protein expression of Supt4h-YC and NGN-YN” value in assay [1] is listed as “does not decrease the BiFC signal via a change in the protein level”. Moreover, the “Q44-GFP expression (GFP intensity normalized with DAPI)” value in the assay with Q44-GFP (higher concentration) is “down regulating both Q20 and Q44-GFP significantly”; in the assay on Q44-GFP (low concentration) it was “down regulates”. The “Q20-GFP expression (GFP intensity normalized with DAPI)” value in the assay on Q20-GFP was “down regulating both Q20 and Q44-GFP significantly”. For the same molecule, the “eGFPC1 expression (GFP intensity normalized with DAPI)” value with eGFPC1 is listed as “minimum effect”.
